Structures are written as SMILES.

For data set [1], the system named is HBV. In words: Anti-HBV activity in HepG2.117 cell line (Tet-off, intracellular HBV DNA, realtime PCR). The data set is classed as cell-based. To be noted: Hepatitis B virus, HepG2.117, 72 h, HepG2.117 cells, 3 days of treatment, intracellular HBV DNA; read-out: HepG2 117 EC50.
For data set [2], the system named is HBV. In words: Anti-HBV activity in stable transfected HepG2.2.15 cell line (HBV DNA from secreted virions, realtime PCR). The data set is classed as cell-based. As to conditions: Hepatitis B virus, HepG2.2.15, 144 h, HepG2.2.15 cells, 6 days of treatment, secreted virion HBV DNA; read-out: HepG2 2.15 EC50.
Data set [3] concerns HepG2 cells. The data set is described as follows: Cytotoxicity in HepG2 cells, 4 days, Resazurin assay. As to conditions: read-out: HepG2 4 days CC50; HepG2 cells, 4 days, Resazurin.
A short description of data set [4]: Cytotoxicity in HepG2 cells using CellTiter-Blue (6 days). As to conditions: human.
Data set [5] is described as follows: Cytotoxicity in HepG2 cells, 4 days, Resazurin assay. To be noted: human.
For data set [6], the system named is HepG2 cells. In words: Cytotoxicity in HepG2 cells using CellTiter-Blue (6 days). To be noted: read-out: HepG2 6 days CC50, 6 days, CellTiter-Blue.

Take `O=C(Nc1ccc(F)cc1)c1cc(S(=O)(=O)NC2CCCCC2)ccc1F` [Compound 18]: the EC50 in data set [1] amounted to 1.3 µM; in data set [2], 0.78 µM. In addition, the CC50 in data set [3] is above 50 µM. This molecule yielded a CC50 at 6 days in data set [4] of 51.6 µM.
In the same order, the values of `O=C(Nc1ccccc1)c1cc(S(=O)(=O)NC2CCCCC2)ccc1F` [Compound 19] are 0.6 µM, 0.66 µM, above 25 µM and 42.5 µM.
On to `O=C(Nc1ccccc1)c1cc(S(=O)(=O)N2CCCCC2)c(Cl)cc1Cl` [Compound 20], for which the EC50 in data set [1] turned out to be 1 µM; in data set [2] it was 0.5 µM. The molecule also came in with a half-maximal cytotoxic concentration (CC50) at 4 days in data set [5] of 79.6 µM. In addition, in data set [6], the CC50 is above 25 µM.
For `O=C(Nc1ccccc1)c1cccc(S(=O)(=O)NC2CCCC2)c1` [Compound 21], the EC50 in data set [1] came out at 0.76 µM; in data set [2], 0.6 µM. Moreover, the 50% cytotoxic concentration (CC50) at 4 days in data set [5] (HepG2 cells) came to 41.1 µM. The 50% cytotoxic concentration (CC50) in data set [6] was 27.2 µM.
The corresponding values for `O=C(Nc1ccc(F)cc1)c1ccc(Cl)c(S(=O)(=O)N2CCCCCC2)c1` [Compound 23] are 1.3 µM, 0.66 µM, 19.6 µM and 17 µM.
As to `CCN(CC)S(=O)(=O)c1ccc(Cl)c(C(=O)Nc2ccccc2)c1` [Compound 26], the EC50 in data set [2] worked out at 1.04 µM. The CC50 in data set [6] is above 25 µM.
`O=C(Nc1ccccc1)c1ccc(F)c(S(=O)(=O)NC2CCCCC2)c1` [Compound 31]: in data set [2], the EC50 turned out to be 2.23 µM. The CC50 in data set [6] came out at 16.4 µM.
As to `COc1ccc(NC(=O)c2ccc(Cl)c(S(=O)(=O)N3CCCCCC3)c2)cc1` [Compound 32], the EC50 in data set [1] is 4.58 µM; in data set [2] it was 2.59 µM. In addition, the half-maximal cytotoxic concentration (CC50) at 4 days in data set [5] (HepG2 cells) was above 25 µM. In addition, in data set [4], the CC50 at 6 days was found to be 9.9 µM.
The corresponding values for `O=C(Nc1ccc(Cl)cc1)c1cc(S(=O)(=O)NC2CCCCC2)ccc1F` [Compound 38] are 15.5 µM, below 6.25 µM, 22.1 µM and 18.4 µM.
The corresponding values for `O=C(Nc1cccc(Cl)c1)c1cc(S(=O)(=O)NC2CCCCC2)ccc1F` [Compound 43] are above 25 µM, 15.1 µM, above 25 µM and 36.3 µM.
